What was measured:
[1] = Transdermic passage of sodium pentasaccharide salt by iontophoresis at set intensity through nude rat skin (Example 2); assay type: in vitro ADME
Protocol: The procedure as described in Example 1 was carried out, but with the following modifications:
implementation of the iontophoresis by setting a constant intensity through each cell
use of a continuous current instead of a pulsed current
the absence of buffer in the donor and back-electrode compartments in test 2d, because these compartments are equipped with electrodes of the Ag/AgCl type, which avoid hydrolysis of water.
[…], over a period of 6 hours, using a generator making it possible to set a constant intensity irrespective of the voltages generated across the terminals of each cell.

[2] = system: factor Xa; experiment: Antifactor Xa activity of the pentasaccharide sodium salt; assay type: biochemical
Protocol: The assay of the pentasaccharide in the receiver compartment was based on investigating its antifactor Xa activity. The assay was carried out either directly on the medium sampled from the receiver compartment or after dilution, using a ROTACHROM HEPARIN 8® assay kit, a complementary buffer for the assay instrument and bovine antithrombin III, these various elements being supplied by the company STAGO, using a HITACHI 717 assay instrument. The calibration curve was established using a "Golden Standard" pentasaccharide solution to which an antifactor Xa activity equal to 13 units per ml was assigned.

[3] = Administration of pentasaccharide sodium salt to minipigs by iontophoresis with periodic current reversal; plasma levels (Example 4); assay type: in vivo, minipig
Protocol: Administration to minipigs of the sodium salt of a pentasaccharide by iontophoresis with set current density with periodic reversal of the current direction.
The following iontophoretic administration tests were carried out on 4 minipigs by using the same current generator and the same type of electrodes as in Example 3, and by applying the following conditions:
The electrodes themselves consisted of 15 μm thick silver films chlorided by electrolytic oxidation in a ratio of 0.5 mAh of silver chloride per cm^2. The reservoirs, also measuring 20 cm^2, consisted of a sheet of blotting paper made of cellulose fibres supplemented with polypropylene fibrils, impregnated to a level of 50 mg/cm^2 with an aqueous solution containing 2% by weight of pentasaccharide and 0.2% by weight of NaCl. Each electrode, the anode and the cathode, contained in all 1 g of solution, i.e. 20 mg of pentasaccharide (1 mg/cm^2) for an active surface area of 20 cm^2. 40 mg of pentasaccharide were therefore engaged in all per animal.
The current generator delivered a constant intensity of 2.5 mA, i.e. 125 μA/cm^2 of direct current with regular reversals of the current direction every 30 minutes for a total time of 8 hours, corresponding to the passage of […] of direct current.
Each of the electrodes, having identical structure and composition, was therefore operated alternately as the cathode and then as the anode, the presence of sodium chloride in each of the reservoirs ensuring their permanent operation as a reversible electrode, thus avoiding any parasitic reaction of hydrolysis (with a change in the pH) or oxidation/reduction of the active principle.
In test 4a, involving 3 animals with an average weight of 11.8 kg, the electrodes were put in place but not connected to the current generator, whereas for all the tests 4b, which concerned 4 animals with an average weight of 12.3 kg, the current of 2.5 mA was applied for 8 hours with automated reversal of the current direction every half hour.
In tests 4a and 4b, a number of blood samples were taken periodically up to 30 hours after the start of each experiment, as in Example 3.
The plasma levels of the various samples are indicated in Table IV for the purpose of comparing tests 4a and 4b with one another and with the results of the tests carried out in Example 3, in particular tests 3c and 3d which correspond to intravenous and subcutaneous injections.

[4] = test 2a: titanium, 0 mA/cm^2 (passive)
[5] = test 4b: iontophoresis 0.125 mA/cm^2, 8 hours, reversal every 30 minutes

Fraction of active principle used (%) ([1]; at 6 hours, test 2a: titanium, 0 mA/cm^2 (passive)): ~ zero | Fraction of active principle used (%) ([1]; at 6 hours, test 2b: graphite, 0.2 mA/cm^2): 0.09% | Fraction of active principle used (%) ([1]; at 6 hours, test 2c: titanium, 0.2 mA/cm^2): 0.49% | Fraction of active principle used (%) ([1]; at 6 hours, test 2d: Ag/AgCl, 0.2 mA/cm^2): 2.8% | Fraction of active principle used (%) ([1]; at 24 hours, test 2a: titanium, 0 mA/cm^2 (passive)): 0.09% | Fraction of active principle used (%) ([1]; at 24 hours, test 2b: graphite, 0.2 mA/cm^2): 0.9% | Fraction of active principle used (%) ([1]; at 24 hours, test 2c: titanium, 0.2 mA/cm^2): 0.75% | Fraction of active principle used (%) ([1]; at 24 hours, test 2d: Ag/AgCl, 0.2 mA/cm^2): 3.7% | Antifactor activity Xa/ml at 6 hours [1, 4]: 0.12 units per ml | Antifactor activity Xa/ml at 24 hours [1, 4]: 0.6 units per ml | total diffused quantity ([1]; test 2a: titanium, passive): 4.64 μg per cm^2 | Antifactor activity Xa/ml at 6 hours ([1]; test 2b: graphite, 0.2 mA/cm^2): 6 units per ml | total diffused quantity ([1]; test 2b: graphite, 0.2 mA/cm^2): 45 μg per cm^2 | Antifactor activity Xa/ml at 24 hours ([1]; test 2b: graphite, 0.2 mA/cm^2, 18 hours after current stopped): 5.8 units per ml | Antifactor activity Xa/ml at 6 hours ([1]; test 2c: titanium, 0.2 mA/cm^2): 3.2 units per ml | total diffused quantity ([1]; test 2c: titanium, 0.2 mA/cm^2): 38 μg per cm^2 | Antifactor activity Xa/ml at 24 hours ([1]; test 2c: titanium, 0.2 mA/cm^2, 18 hours after current stopped): 4.9 units per ml | total diffused quantity per mAh ([1]; test 2d: Ag/AgCl electrodes): 154 μg/cm^2 per mAh | total diffused quantity ([1]; test 2d: Ag/AgCl, 0.2 mA/cm^2): 185 μg per cm^2 | Antifactor activity Xa/ml at 6 hours ([1]; test 2d: Ag/AgCl, 0.2 mA/cm^2, no buffer): 18.1 units per ml | Antifactor activity Xa/ml at 24 hours ([1]; test 2d: Ag/AgCl, 0.2 mA/cm^2, 18 hours after current stopped): 24 units per ml | bioavailability ([3]; minipig, plasma, topical, test 4b, 40 mg engaged): ~21% | average quantity of pentasaccharide administered during the treatment ([3]; passive test 4a): zero | Initial plasma level ([3]; test 4a: passive, 0 mA/cm^2): 0 anti-Xa U/mL | Plasma level at 30 minutes ([3]; test 4a: passive, 0 mA/cm^2): 0 | Plasma level at 1 hour ([3]; test 4a: passive, 0 mA/cm^2): 0 | Plasma level at 2 hours ([3]; test 4a: passive, 0 mA/cm^2): 0 | Plasma level at 4 hours ([3]; test 4a: passive, 0 mA/cm^2): 0 | Plasma level at 6 hours ([3]; test 4a: passive, 0 mA/cm^2): 0 | Plasma level at 8 hours ([3]; test 4a: passive, 0 mA/cm^2): 0 | Plasma level at 10 hours ([3]; test 4a: passive, 0 mA/cm^2): 0 | Plasma level at 12 hours ([3]; test 4a: passive, 0 mA/cm^2): 0 | Plasma level at 16 hours ([3]; test 4a: passive, 0 mA/cm^2): 0 | Plasma level at 26 hours ([3]; test 4a: passive, 0 mA/cm^2): 0 | Plasma level at 30 hours ([3]; test 4a: passive, 0 mA/cm^2): 0 | quantity of pentasaccharide administered per mAh ([3]; test 4b): 372 μg/cm^2 | Initial plasma level [3, 5]: 0 anti-Xa U/mL | Plasma level at 30 minutes [3, 5]: 0.11 ± 0.05 | Plasma level at 1 hour [3, 5]: 0.16 ± 0.05 | Plasma level at 2 hours [3, 5]: 0.28 ± 0.1 | Plasma level at 4 hours [3, 5]: 0.64 ± 0.2 | Plasma level at 6 hours [3, 5]: 0.57 ± 0.18 | Plasma level at 8 hours [3, 5]: 0.59 ± 0.15 | Plasma level at 10 hours [3, 5]: 0.61 ± 0.16 | Plasma level at 12 hours [3, 5]: 0.58 ± 0.05 | Plasma level at 16 hours [3, 5]: 0.2 ± 0.05 | Plasma level at 26 hours [3, 5]: 0.14 ± 0.02 | Plasma level at 30 hours [3, 5]: 0.05 ± 0.02 | average quantity of pentasaccharide administered during the treatment ([3]; test 4b, from area under the curve): 8.45 ± 1.5 mg
Structure (SMILES): O=C(O)C1OC(OC2C(COS(=O)(=O)O)OC(OC3C(C(=O)O)OC(OC4C(COS(=O)(=O)O)OC(O)C(NS(=O)(=O)O)C4O)C(OS(=O)(=O)O)C3O)C(NS(=O)(=O)O)C2OS(=O)(=O)O)C(O)C(O)C1OC1OC(COS(=O)(=O)O)C(O)C(O)C1NS(=O)(=O)O (centres unmarked) [pentasaccharide]
antifactor Xa activity [2]: 0.65 "Golden Standard" units per microgram

Reference: patent publication US5928185A, “Iontophoresis device for the transcutaneous delivery of an active principle such as an anionic oligosaccharide” (Sanofi, priority 1995, dated 1999)
